The data set in a line: relative permittivity at various frequencies (dimensionless); xn = mol fraction of the nth substance listed. Particulars: 303.15 K, 101 kPa, Liquid, Frequency=1 MHz, Capacitive measurement method at f=1 MHz.

The results in this text go back to the NIST ThermoML archive (doi:10.1016/j.fluid.2010.02.038).

± gives the expanded uncertainty stated by the source.

`NC=O` [formamide] + NCCO: the relative permittivity (x2 = 0) is 106.14 ± 0.64; the relative permittivity (x2 = 0.068) came out at 97.77 ± 1.3; the relative permittivity (x2 = 0.141) is listed as 90.12 ± 1.2; the relative permittivity (x2 = 0.22) was determined as 81.77 ± 1.1; the relative permittivity (x2 = 0.305) was 74.02 ± 0.98; the relative permittivity (x2 = 0.397) worked out at 66.34 ± 0.87. For the same molecule, the relative permittivity was found to be 59.14 ± 0.77 (x2 = 0.497), 52.04 ± 0.71 (x2 = 0.606), 44.61 ± 0.66 (x2 = 0.725) and 36.91 ± 0.53 (x2 = 0.856).

Turning to `CN(C)C=O` [dimethylformamide] + NCCO, the relative permittivity (x2 = 0) came to 36.55 ± 0.22.
